Experimental findings from patent US20230382871A1, “CSF1R KINASE INHIBITOR AND USE THEREOF” (SHANGHAI INSTITUTE OF MATERIA MEDICA, CHINESE ACADEMY OF …, priority 2020, published 2023) are described below.

Molecules are shown by their SMILES.

Assay [1] relates to macrophage marker F4/80 in U87MG tumor tissues. Briefly: Immunohistochemistry of macrophage marker F4/80 in U87MG tumor tissues. To be noted: 40 mg/kg, compared with blank preparation group. It is filed as in vivo, nude mice. How it is done: At the end of the in vivo experiments, U87MG and HT-29 xenografts in nude mice were removed and fixed with […] to prepare paraffin sections.
Expression of individual proteins was assessed using multiplicative quick score method (MQS). This evaluation method takes into account both the staining intensity and the staining range. The method estimates the proportion of positive cells and gives a range score from 1 to 6 (1=1%-4%; 2=5%-19%; 3=20%-39%; 4=40%-59%; 5=60%-79%; 6=80%-100%). The average intensity score of positive stained cells was 0 to 3 (0=no staining; 1=weak staining; 2=moderate staining; 3=strong staining). The total score a (minimum 0 and maximum 18) is then calculated by multiplying the range score by the intensity score.
For detecting the changes in the macrophage marker F4/80 and M2-type macrophage marker CD206 in the U87MG tumor tissues, quantitative analysis (solvent: n=6, blank preparation: n=6, Compound I (10 mg/kg): n=6, Compound I (20 mg/kg): n=6, Compound I (40 mg/kg): n=6, Axitinib: n=4) was performed on all sections and the experimental data were analyzed for significant differences using the t-test. * denotes p<0.05 as compared with the blank preparation group, ** denotes p<0.01 as compared with the blank preparation group, and denotes p<0.001 as compared with the blank preparation group.

Assay [2] relates to mouse astrocytoma DBT subcutaneous xenografts. Briefly: Mouse astrocytoma DBT subcutaneous tumor model, alone or combined with anti-PD-1 antibody. It is filed as in vivo, BALB/c mice. Particulars: alone, 5 mg/kg po twice a day, 28 days. Here is the method:
Mouse astrocytoma DBT cell suspensions were injected subcutaneously into the right axillary fossa of BALB/c mice under aseptic conditions. The diameters of the subcutaneous xenografts in nude mice were measured with a vernier caliper. The animals were randomly grouped after the xenografts reached an average volume of 100 to 200 mm^3. Compound I was administered orally at a dose of 5 mg/kg (alone or in combination with an anti-PD-1 antibody) twice a day for 28 consecutive days. An anti-PD-1 antibody (Bio X Cell, InVivoMAb anti-mouse PD-1 (CD279) (cat. No. BE0146)) was administered intraperitoneally at a dose of 10 mg/kg (alone or in combination with Compound I) once every three days for 28 consecutive days. Throughout the experiment, the diameters of the xenografts were measured twice a week and the mice were weighed at the same time. The tumor volume (TV) was calculated as TV=½×a×b^2 where “a” and “b” denote the length and width of a tumor, respectively. The relative tumor volume (RTV) was calculated from the measurement results with the calculation formula RTV=Vt/V0, in which V0 is the tumor volume measured upon administration after grouping (i.e., D0) and Vt is the tumor volume from each measurement.
For all dose groups, n=9. The experimental data were analyzed for significant differences using the t-test. […]

For assay [3], the system named is phosphorylated AKT (p-AKT) in BMDM. As to the kind of experiment: Western blot of CSF1-stimulated AKT phosphorylation in BMDM. It is filed as cell-based. To be noted: Mus musculus, 100 nM, 2 h, CSF1 50 ng/mL 15 min. How it is done: Bone marrow-derived macrophages, after induction by CSF1 for 5 to 7 days, were centrifuged to remove the previous medium. 2 mL of a serum-free medium was added. […] CSF1 factor was added at a final concentration of 50 ng/mL for stimulation for 15 minutes. The culture medium was discarded, and cells were washed three times with pre-cooled PBS. Then, the cells were lysed by adding 1×SDS gel loading buffer. The cell lysates were heated in a boiling water bath for 15 min, and then stored at −20° C.
A protein sample as described above was subjected to SDS-PAGE electrophoresis. Then, the protein was transferred to a nitrocellulose membrane using a semi-dry electrotransfer system. The nitrocellulose membrane was placed in a blocking solution (5% skim milk in TBS-T) and incubated for 2 h at room temperature. Then, the membrane was allowed to react with a primary antibody overnight at 4° C. After the membrane was washed with TBS-T for three times with 15 min each time, the membrane was allowed to react in a secondary antibody dilution at room temperature for 1-2 h. […]
The inhibitory effect of Compound I on CSF1R and its signaling pathway in mouse primary macrophages was detected by immunoblotting assays. Each experiment was independently repeated three times and all experimental results were quantified. […]
For orientation: A western blot detects proteins with antibodies after separation by electrophoresis.

Assay [4] concerns the target recombinant CSF1R kinase (Homo sapiens (Human), UniProt P07333). Briefly: CSF1R kinase activity ELISA assay. Type of assay: biochemical. To be noted: poly(Glu, Tyr)4:1 substrate, ATP 5 μM, read-out: IC50, inhibition of CSF1R kinase activity. A general note: An ELISA detects its analyte on a solid surface through an enzyme-linked reagent.

Sequence of recombinant CSF1R kinase (P07333 20-972): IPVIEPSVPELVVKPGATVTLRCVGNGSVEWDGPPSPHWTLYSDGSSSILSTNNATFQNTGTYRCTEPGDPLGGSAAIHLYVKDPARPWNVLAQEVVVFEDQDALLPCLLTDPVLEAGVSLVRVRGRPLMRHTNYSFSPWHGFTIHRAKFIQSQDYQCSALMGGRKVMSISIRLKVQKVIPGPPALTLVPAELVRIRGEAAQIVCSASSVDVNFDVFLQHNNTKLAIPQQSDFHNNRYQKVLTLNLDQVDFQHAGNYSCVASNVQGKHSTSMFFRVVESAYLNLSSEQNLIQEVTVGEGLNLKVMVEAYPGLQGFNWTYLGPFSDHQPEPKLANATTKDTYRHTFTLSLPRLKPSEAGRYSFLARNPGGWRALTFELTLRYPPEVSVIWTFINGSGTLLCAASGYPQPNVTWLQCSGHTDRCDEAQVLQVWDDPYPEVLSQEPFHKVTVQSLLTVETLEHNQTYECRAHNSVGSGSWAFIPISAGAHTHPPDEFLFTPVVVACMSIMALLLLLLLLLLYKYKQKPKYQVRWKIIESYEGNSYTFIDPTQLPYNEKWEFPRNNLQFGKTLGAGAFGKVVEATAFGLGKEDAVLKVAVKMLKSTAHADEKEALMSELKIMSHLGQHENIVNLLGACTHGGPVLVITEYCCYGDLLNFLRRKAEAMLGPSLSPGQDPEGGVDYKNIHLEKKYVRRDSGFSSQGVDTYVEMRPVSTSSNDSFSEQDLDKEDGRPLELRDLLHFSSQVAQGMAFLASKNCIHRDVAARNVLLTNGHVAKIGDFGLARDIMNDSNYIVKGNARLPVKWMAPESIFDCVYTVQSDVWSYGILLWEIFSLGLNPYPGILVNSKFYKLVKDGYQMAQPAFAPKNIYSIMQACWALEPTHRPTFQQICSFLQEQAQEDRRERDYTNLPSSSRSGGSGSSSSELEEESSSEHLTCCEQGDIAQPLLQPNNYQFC

Usually inhibition stands for the change of the read-out against control, counted positive when it falls. As a reminder, the IC50 is the concentration that inhibits the measured activity by half. `Cc1cc(NC(=O)c2cccc3cc(-c4cccc5[nH]nc(N)c45)ccc23)ccc1F` [Compound I]: in assay [1], the “expression of F4/80 in macrophages, U87MG tumor tissue” value is “significantly reduced”. In assay [2], the “in vivo growth of DBT tumors” value is “no significant inhibitory activity”. The compound also gave an inhibition at 0.1 µM in assay [3] of 64.4%. For the same compound, the half-maximal inhibitory concentration (IC50) in assay [4] came out at 19.3 ± 3.4 nM.
